The subject of assay [1] is HGF. Description: Endogenous repair factor protein producing action (in vitro), HGF by ELISA, Example 2. In kind it is cell-based, human. The settings on record: 10^-7 mol/l. On the procedure:
An angiogenesis kit (manufactured by Kurabo; constituted from normal human umbilical cord vein vascular endothelial cells and normal human skin fibroblasts) was cultured for 3 hours, and then the culture medium (the medium for angiogenesis use attached to the angiogenesis kit was used as the culture medium and cultured at 37° C. under a moist environment of 5% carbon dioxide-95% air, and a carbon dioxide incubator BNA-121D was used as the incubator) was changed and an agent to be tested was added to each well (0.5 ml/well). The agent to be tested were solvent (DMSO) 0.1% and Compound 1 10^−7 mol/l, and the culturing was carried out by using 3 wells for each. Culture supernatants were collected before commencement of the culturing and 1, 2, 6, 24, 48 and 72 hours after the commencement. HGF and VEGF protein concentrations in the culture supernatants were measured by using an ELISA kit (R % D system-Funakoshi).
As the agent to be tested, Compound 1 ((E)-[5-[2-[1-phenyl-1-(3-pyridyl)methylideneaminoxy]ethyl]-7,8-dihydronaphthalen-1-yloxy]acetic acid) was dissolved in dimethyl sulfoxide (DMSO) to prepare 10^−4 mol/l solution which was then used by diluting 1/1000 time with the culture medium.
Results of the solvent control wells were compared with those of the wells treated with the agent to be tested by Dunnett's test (two-sided test). The significance level was set to 5%. […]
A general note: ELISA stands for enzyme-linked immunosorbent assay.

Assay [2] concerns rat leg ischemia (arteriosclerosis obliterans (ASO)) model. Description: Angiogenesis test using rat leg ischemia (ASO) model, Example 4. Type of assay: in vivo. The procedure: Leg ischemia model was prepared by ligating rat left femoral artery. Blood flow in hind legs was measured by using Laser Doppler Imager (Moor Instruments) 2 weeks after the preparation, and the animals were divided into 6 groups (n=5) in such a manner that the average value of blood flow became almost uniform.
Starting on the next day of the grouping, 0.1 ml/site, 2 sites, of the agent to be tested was administered by intramuscular injection into the left femoral adductor, for once a week, 4 times in total as a solution to be tested. One week after completion of the final administration, blood flows of hind legs were measured by using Laser Doppler Imager (Moor Instruments), and blood flows of the treated leg (left leg) and untreated leg (right leg) were compared and examined.
In this connection, construction of the solution to be tested is as follows. Solvent (control) group: 0.2 w/v % Tween 80 solution (0.2 ml).
• The polylactic acid-glycolic acid copolymer used in Preparation Example 2 was suspended in 0.2 w/v % Tween 80 solution (0.2 ml). In this connection, amount of the polylactic acid-glycolic acid copolymer is identical to the amount contained in the Compound 1 MS (1 mg). Compound 1 (1 mg) Group: • Compound 1 (1 mg) was suspended in 0.2 w/v % Tween 80 solution (0.2 ml). […]

For assay [3], the system named is mouse sponge transplantation model. Description: Angiogenesis test using mouse sponge transplantation model, Example 8. In kind it is in vivo. Particulars: for Hemoglobin content / Sponge wet weight: 15th day; for hemoglobin concentration in the granulation tissue, in words: vs polymer group. The procedure:
Under anesthesia, dorsal part of a mouse was incised and a discus urethane sponge (about 5 mm in thickness and 13 mm in diameter) was embedded therein. Administration of the agent was carried out by topically administering it directly into the sponge once a day for a total of 14 times starting on the day of the sponge transplantation model preparation, or on the operation-completed day and 7th day thereafter. On the 15th day after the sponge transplantation, the sponge containing granulation tissue was extracted and observed with the naked eye, and then its wet mass was measured. In addition, this was mixed with distilled water of 4 times larger amount than the wet mass, homogenized and centrifuged, and then the supernatant was subjected to the measurement of the hemoglobin content using Hemoglobin 13-Test Wako (manufactured by Wako Pure Chemical Industries).
• The polylactic acid-glycolic acid copolymer used in Preparation Example 2 was suspended in 0.2 w/v % Tween 80 solution (0.05 ml). In this connection, amount of the polylactic acid-glycolic acid copolymer is identical to the amount contained in Compound 1 MS (200 μg). Compound 1 (20 μg) Group: • Compound 1 (20 μg) was suspended in 0.2 w/v % Tween 80 solution (0.05 ml). Compound 1 (40 μg) Group:
Compound 1 (40 μg) was suspended in 0.2 w/v % Tween 80 solution (0.05 ml).
• Compound 1 (200 μg) was suspended in 0.2 w/v % Tween 80 solution (0.05 ml). Compound 1 MS (200 μg) group: • The microsphere preparation produced in Preparation Example 2 containing […] of Compound 1 was suspended in 0.2 w/v % Tween 80 solution (0.05 ml). Compound 1 MS (400 μg) Group: • The microsphere preparation produced in Preparation Example 2 containing 400 μg of Compound 1 was suspended in 0.2 w/v % Tween 80 solution (0.05 ml). Compound 3 (20 μg) Group: • Compound 3 (20 μg) was suspended in 0.2 w/v % Tween 80 solution (0.05 ml).

Setting [4] is: 20 μg into the sponge once a day, 14 days of repeated administration.
Where [5] appears, read: 40 μg into the sponge once a day, 14 days of repeated administration.
Where [6] appears, read: 200 μg into the sponge, two administrations at 7 day intervals.

As to `O=C(O)COc1cccc2c1CCC=C2CCO/N=C(\c1ccccc1)c1cccnc1` [Compound 1, (E)-[5-[2-[1-phenyl-1-(3-pyridyl)methylideneaminoxy]ethyl]-7,8-dihydronaphthalen-1-yloxy]acetic acid], the “production of HGF protein, in words” value in assay [1] (72 hours of culturing, vs solvent control) was “accelerated production of HGF protein and VEGF protein statistically significantly”. Also, the “HGF protein concentration in culture supernatant” value in assay [1] (after 72 hours of culturing, average of 3 wells ± SD) stood at 518 ± 15 pg/mL. Further, the “Treated leg/untreated leg blood flow ratio” value in assay [2] (1 mg as Compound 1, i.m. left femoral adductor once a week x4, 1 week after final administration) amounted to 76.2 ± 2.8 %. Besides, the “blood flow improving effect, in words” value in assay [2] (1 mg, i.m. once a week x4, vs Control / polymer group) is given as “significant recovery of blood flow against Control”. Moreover, the Hemoglobin content in assay [3] (setting [4]) is listed as 2.403 ± 0.533 mg/g wet tissue; in assay [3] (setting [5]), 3.010 ± 0.808 mg/g wet tissue; in assay [3] (setting [6]) it was 1.964 ± 0.289 mg/g wet tissue. Also, the results for the Sponge wet weight in assay [3] (setting [4]), in assay [3] (setting [5]) and in assay [3] (setting [6]) were 0.3843 ± 0.0681 g, 0.5136 ± 0.0938 g and 0.4123 ± 0.0320 g, respectively. The “hemoglobin concentration in the granulation tissue, in words” value in assay [3] (20 μg, 14 days of repeated administration) was “showed an increasing tendency, but is not a significant increase”; in assay [3] (40 μg, 14 days of repeated administration), “showed an increasing tendency, but is not a significant increase”; in assay [3] (200 μg, two administrations at 7 day intervals) it was “did not increase”.

For the origin of these results see patent publication US8642630B2, “Endogeneous repair factor production accelerators” (Ono Pharmaceutical Co., Ltd., priority 2002, dated 2014).
